In data set [1] the test system is total anti-ovalbumin antibody in the serum. Put plainly: Primary anti-ovalbumin antibody production in vivo (ELISA), derivatives on Days 1–3. More on the design: species or system C57BL/10 mice. To be noted: 0.091 mmol ip Days 1–3; serum day 10; versus saline. The procedure:
C57BL/10 mice are injected ip on Day 0 with ovalbumin followed by ip injections of saline, or one of three different butyrate derivatives on Days 1–3.
The butyrate derivatives are tested for their ability to suppress lymphocyte activity in vivo. C57BL/10 mice (5 mice/group) are injected ip with 100 μg of ovalbumin in conjunction with complete Freund's adjuvant on Day 0. In one experiment, the mice also receive one ip injection per day of the butyrate derivatives (0.091 mmol) on Days 1–3. Serum samples are obtained 10 days after the initial injection with ovalbumin, and tested for the presence of anti-ovalbumin antibodies using an ELISA. To perform the ELISA 96 well plates (Costar 3595) are first incubated with ovalbumin (100 μl/well of 100 μg/ml in PBS) overnight at 4° C. The plates are then washed 4 times with PBS and 0.5% Tween 20, blocked with 1% fetal calf serum for 30 minutes at 37° C., and washed again. Individual serum samples are added (diluted 1/100 or 1/1000 in PBS), and the plates are incubated for 2 hours at 20° C. The plates were next washed 7 times with PBS/Tween, and alkaline phosphate (AP)-labeled goat anti-mouse IgG, IgA, IgM (H+L) (Zymed) is added ( 1/1000) for 1 hour at 20° C. The plates are again washed 7 times with PBS/Tween, alkaline phosphate substrate (1 mg/ml) is added. After 10 minutes, Ig levels are quantified by an ELISA reader (absorbance 405 nm). The concentration of anti-ovalbumin is determined by comparison with a standard curve obtained using mouse anti-ovalbumin antibody (Sigma; St. Louis, Mo.). To measure isotype-specific anti-ovalbumin antibodies, serum samples (diluted at 1/300 or 1/1000) are incubated on the ovalbumin-coated plates as described above. […] Ig levels are presented as OD measurements.

Data set [2] concerns KLH-specific Th1 cells (clone D3). The data set can be described thus: IL-2-induced proliferation of Th1 cells in the presence of butyrate derivatives. Format: cell-based, C57BL/10 mice. The settings on record: for Suppression of IL-2-induced proliferation of Th1 cells: 10% Con A CM, various concentrations, proliferation after 2 days. How it is done: KLH-specific Th1 cells (clone D3) are stimulated with IL-2 (10% Con A CM) in the presence of different concentrations of n-butyrate or butyrate derivatives. In FIG. 2A Th1 cell proliferation is measured after 2 days. In FIG. 2B, the inhibitors are washed out after 24 hours, and the Th1 cells reincubated with fresh IL-2-containing medium. Proliferation of the Th1 cells restimulated with IL-2 in the absence of the inhibitors is measured after an additional 2 days. This experiment was repeated three times, and the proliferation data represents the means of the […] experiments.
The KLH-specific were developed in C57BL/10 mice, and characterized as Th1 clones based on their ability to secrete IL-2, but not IL-4. The Th1 clones were passed every 7–14 days using KLH, irradiated syngeneic spleen cells as antigen-presenting cells (APC), and IL-2-containing Con A CM using a previously described protocol (Gilbert et al., 1990).
To test the ability of the butyrate derivatives to suppress T cell activity […], Th1 cells [(5×10^4 cells/well in 96 well plates (Costar)] are stimulated with 10% IL-2-containing Con A CM in the presence of various concentrations of different butyrate derivatives. In some cultures, Th1 cell proliferation is measured after two days. In other cultures, the Th1 cells are washed after 24 hours, and fresh IL-2-containing medium is added. Proliferation is measured in the washed, IL-2-restimulated cultures after an additional 2 days.

For data set [3] the following is noted: humans; perfused at doses as high as 2 g/kg/day (Perrine et al., 1994); cited from earlier work.
The conditions of data set [4]: Daniel et al., 1989, cited from earlier work.
Data set [5] deals with Anti-HGG antibody in serum. Put plainly: Primary anti-HGG antibody response in mice treated with n-butyrate. The arrangement: Anti-HGG antibody in serum of individual mice: unit not given here. In kind it is in vivo. To be noted: for Anti-HGG antibody in serum, group mean (x) / Anti-HGG antibody in serum of individual mice: ELISA day 9; for Anti-HGG antibody in serum, group mean (x): mean of 5 mice; for Anti-HGG antibody in serum of individual mice: HGG 100 μg ip day 0. From the text:
Prior to testing the suppressive effects of butyrate prodrugs in vivo, the ability of n-butyrate to inhibit a primary antibody response in mice was examined.

The mark [6] stands for this setting: Experiment 1, 5.5 mg n-butyrate ip days 2–5.
[7] abbreviates: Experiment 2, 5.5 mg n-butyrate ip days 2–6.

Each structure is given as a SMILES string. “And” between values parts separate entries of the source, which are not always exact repeats. Equal values may be shown once. Read-outs that look alike come from different tables or passages of the source.

Turning to `CCCC(=O)OCCN1CCN(C(=O)CCC)CC1.Cl` [BEB, 2-(4-Butanoylpiperazinyl)ethyl butanoate hydrochloride], the “Effect on primary antigen-specific antibody production in vivo” value in data set [1] is given as “significantly less antigen-specific antibody than control mice”. For the same compound, the “Suppression of IL-2-induced proliferation of Th1 cells” value in data set [2] is listed as “comparable to n-butyrate”. In data set [2] (washed after 24 hours, fresh IL-2 medium, additional 2 days), the “Proliferation to IL-2 after compounds are washed out” value was “regained their ability to proliferate to IL-2”.
For `CCCC(=O)NCCN1CCOCC1.Cl` [MEBA, 2-(4-Morpholinyl)ethyl butanamide hydrochloride], the “Effect on primary antigen-specific antibody production in vivo” value in data set [1] was “unable to suppress”. In addition, in data set [2], the “Suppression of IL-2-induced proliferation of Th1 cells” value is “does not suppress”.
Take `CCCC(=O)O.CCCC(=O)O.CCCC(=O)O.CCCC(=O)O.N=C(N)NCCC[C@H](N)C(=O)O.N=C(N)NCCC[C@H](N)C(=O)O.N=C(N)NCCC[C@H](N)C(=O)O` [arginine salt of butyrate]: in data set [3], the Toxicity result is “nontoxic”.
As to `CCCC(=O)O` [n-butyrate], the half-life in vivo entry is “six” in data set [4] and 3 to 6 min in data set [4] (listed as n-buytyrate). For the same compound, the “Anti-HGG antibody in serum, group mean (x)” value in data set [5] (setting [6]) is “x = 86 ± 72”; in data set [5] (setting [7]), “x = 12 ± 11”. Further, the “Anti-HGG antibody in serum of individual mice” value in data set [5] (setting [6]) is 202 and 91 and 29 and 83 and 24; in data set [5] (setting [7]), 12 and 6 and 4 and 9 and 31. Also, the “Suppression of primary antibody response” value in data set [5] (mice, n-butyrate ip, versus control) is reported as 40–50%.

The values above are taken from US7034020B2, “Derivatives of butyric acid and uses thereof” (The University of Arkansas for Medical Science, priority 1999, dated 2006).
